According to ChEMBL document CHEMBL4706569, “Hydroxy-corrole and its gallium(III) complex as new photosensitizer for photodynamic therapy against breast carcinoma” (Eur J Med Chem, 2020):
Activity calls are given as the source filed them. The calls are words filed in the database; no cut-off is given here.

Legend:
[1] = Selectivity index, ratio of IC50 for HUVEC in presence of light irradiation to IC50 for human MDA-MB-231 cells in presence of light irradiation; assay type: toxicity; conditions: HUVEC and MDA-MB-231 cells, read-out: Ratio IC50
[2] = Dark toxicity in mouse 4T1 cells assessed as reduction in cell viability by MTT assay; assay type: cell-based
[3] = Phototoxicity index, ratio of IC50 for cytotoxicity against HUVEC measured under dark condition to IC50 for phototoxicity against HUVEC upon LED light irradiation; conditions: human, read-out: Ratio IC50
HUVEC = experiment: Phototoxicity against HUVEC assessed as reduction in cell viability preincubated for 4 hrs followed by irradiation with 0.3 W/cm2 of 625 +/- 2 nanometer LED light for 1 hr and measured after 42 hrs by MTT assay; assay type: cell-based; conditions: Homo sapiens, light or radiation study
[4] = Dark toxicity in HUVEC assessed as reduction in cell viability by MTT assay; assay type: cell-based; conditions: human
4T1 = experiment: Phototoxicity against mouse 4T1 cells assessed as reduction in cell viability preincubated for 4 hrs followed by irradiation with 0.3 W/cm2 of 625 +/- 2 nanometer LED light for 1 hr and measured after 42 hrs by MTT assay; assay type: functional, cell-based; conditions: 4T1, light or radiation study
[5] = Phototoxicity index, ratio of IC50 for cytotoxicity against mouse 4T1 cells measured under dark condition to IC50 for phototoxicity against mouse 4T1 cells upon LED light irradiation
MDA-MB-231 [6] = experiment: Phototoxicity against human MDA-MB-231 cells assessed as reduction in cell viability preincubated for 4 hrs followed by irradiation with 0.3 W/cm2 of 625 +/- 2 nanometer LED light for 1 hr and measured after 42 hrs by MTT assay; assay type: functional, cell-based; conditions: MDA-MB-231, light or radiation study
[7] = Dark toxicity in human MDA-MB-231 cells assessed as reduction in cell viability by MTT assay; assay type: cell-based
[8] = Phototoxicity index, ratio of IC50 for cytotoxicity against human MDA-MB-231 cells measured under dark condition to IC50 for phototoxicity against human MDA-MB-231 cells upon LED light irradiation
[9] = Absorption property of the compound in DMF assessed as soret band absorption wavelength at 1 uM by UV-visible spectrophotometric method; assay type: physicochemical
[10] = Induction of singlet oxygen generation in DMF solution assessed as singlet oxygen quantum yield at 1 uM irradiated with 625 +/- 2 nanometer laser light by DPBF-based assay; assay type: functional
[11] = Absorption property of the compound in DMF assessed as Q band molar extinction coefficient at 1 uM by UV-visible spectrophotometric method; assay type: physicochemical
[12] = Absorption property of the compound in DMF assessed as soret band wavelength molar absorption coefficient at 1 uM by UV-visible spectrophotometric method; assay type: physicochemical
[13] = Absorption property of the compound in DMF assessed as soret band molar extinction coefficient at 1 uM by UV-visible spectrophotometric method; assay type: physicochemical
[14] = Absorption property of the compound in DMF assessed as Q band absorption wavelength at 1 uM by UV-visible spectrophotometric method; assay type: physicochemical
[15] = Absorption property of the compound in DMF assessed as soret band molar attenuation coefficient at 1 uM by UV-visible spectrophotometric method; assay type: physicochemical
MDA-MB-231 [16] = experiment: Induction of cell cycle arrest in human MDA-MB-231 cells assessed as accumulation at G1 phase at 5 uM preincubated with 625 +/- 2 nanometer LED light irradiation for 1 hrs and measured after 24 hrs by RNase A/propidium iodide staining based flow cytometry analysis (reference value: 43.6 %); assay type: functional; conditions: time 25 hrs
MDA-MB-231 [17] = experiment: Induction of apoptosis in human MDA-MB-231 cells assessed as late apoptotic cells at 2.5 uM under dark condition by annexin V-FITC/PI based flow cytometric analysis (reference value: 0.67 %); assay type: functional
MDA-MB-231 [18] = experiment: Induction of ROS generation in human MDA-MB-231 cells at 2.5 uM in dark by DCFH-DA staining based fluorescence microscopy; assay type: functional, cell-based
[19] = Drug localization in mitochondria of human MDA-MB-231 cells at 20 uM incubated for 4 hrs by Mito-tracker dye based confocal laser scanning microscopy; assay type: ADME; conditions: mda-mb-231, 4 h
MDA-MB-231 [20] = experiment: Induction of apoptosis in human MDA-MB-231 cells assessed as late apoptotic cells at 2.5 uM preincubated for 4 hrs followed by 625 +/- 2 nanometer LED light irradiation for 1 hr and measured after 18 hrs by annexin V-FITC/PI based flow cytometric analysis (reference value: 1.34 %); assay type: functional; conditions: time 23 hrs
MDA-MB-231 [21] = experiment: Induction of apoptosis in human MDA-MB-231 cells assessed as viable cells at 2.5 uM preincubated for 4 hrs followed by 625 +/- 2 nanometer LED light irradiation for 1 hr and measured after 18 hrs by annexin V-FITC/PI based flow cytometric analysis (reference value: 98.0 %); assay type: functional; conditions: MDA-MB-231, light or radiation study, time 23 hrs, read-out: Activity
MDA-MB-231 [22] = experiment: Induction of cell cycle arrest in human MDA-MB-231 cells assessed as accumulation at sub-G1 phase at 5 uM preincubated with 625 +/- 2 nanometer LED light irradiation for 1 hrs and measured after 24 hrs by RNase A/propidium iodide staining based flow cytometry analysis (reference value: 3.93 %); assay type: functional; conditions: time 25 hrs
MDA-MB-231 [23] = experiment: Induction of cell cycle arrest in human MDA-MB-231 cells assessed as accumulation at S phase at 5 uM preincubated with 625 +/- 2 nanometer LED light irradiation for 1 hrs and measured after 24 hrs by RNase A/propidium iodide staining based flow cytometry analysis (reference value: 29.0 %); assay type: functional; conditions: time 25 hrs
[24] = Drug localization in lysosome of human MDA-MB-231 cells at 20 uM incubated for 4 hrs by Lyso-tracker dye based confocal laser scanning microscopy; assay type: ADME, subcellular; conditions: mda-mb-231, 4 h
[25] = Drug uptake in human MDA-MB-231 cells at 10 uM incubated for 4 hrs by Hoechst 33342 staining based fluorescence microscopy; assay type: ADME, cell-based; conditions: mda-mb-231, 4 h
MDA-MB-231 [26] = experiment: Induction of apoptosis in human MDA-MB-231 cells assessed as viable cells at 2.5 uM under dark condition by annexin V-FITC/PI based flow cytometric analysis (reference value: 99.0 %); assay type: functional; conditions: read-out: Activity
MDA-MB-231 [27] = experiment: Induction of apoptosis in human MDA-MB-231 cells assessed as early apoptotic cells at 2.5 uM under dark condition by annexin V-FITC/PI based flow cytometric analysis (reference value: 0 %); assay type: functional
MDA-MB-231 [28] = experiment: Induction of apoptosis in human MDA-MB-231 cells assessed as necrotic cells at 2.5 uM preincubated for 4 hrs followed by 625 +/- 2 nanometer LED light irradiation for 1 hr and measured after 18 hrs by annexin V-FITC/PI based flow cytometric analysis (reference value: 0.41 %); assay type: functional; conditions: time 23 hrs
MDA-MB-231 [29] = experiment: Induction of apoptosis in human MDA-MB-231 cells assessed as necrotic cells at 2.5 uM under dark condition by annexin V-FITC/PI based flow cytometric analysis (reference value: 0.36 %); assay type: functional
MDA-MB-231 [30] = experiment: Induction of cell cycle arrest in human MDA-MB-231 cells assessed as accumulation at S phase at 5 uM measured after 24 hrs under dark condition by RNase A/propidium iodide staining based flow cytometry analysis (reference value: 24.8 %); assay type: functional
MDA-MB-231 [31] = experiment: Induction of mitochondrial depolarization in human MDA-MB-231 cells at 2.5 uM preincubated for 4 hrs followed by 625 +/- 2 nanometer LED light irradiation for 1 hr and measured after 18 hrs by JC1 staining based fluorescence microscopy; assay type: functional, cell-based; conditions: time 23.0 hrs
MDA-MB-231 [32] = experiment: Induction of mitochondrial depolarization in human MDA-MB-231 cells at 2.5 uM in dark by JC1 staining based fluorescence microscopy; assay type: functional, cell-based
MDA-MB-231 [33] = experiment: Induction of apoptosis in human MDA-MB-231 cells assessed as early apoptotic cells at 2.5 uM preincubated for 4 hrs followed by 625 +/- 2 nanometer LED light irradiation for 1 hr and measured after 18 hrs by annexin V-FITC/PI based flow cytometric analysis (reference value: 0.27 %); assay type: functional; conditions: time 23 hrs
MDA-MB-231 [34] = experiment: Induction of cell cycle arrest in human MDA-MB-231 cells assessed as accumulation at sub-G1 phase at 5 uM measured after 24 hrs under dark condition by RNase A/propidium iodide staining based flow cytometry analysis (reference value: 2.56 %); assay type: functional
MDA-MB-231 [35] = experiment: Induction of cell cycle arrest in human MDA-MB-231 cells assessed as accumulation at G2 phase at 5 uM measured after 24 hrs under dark condition by RNase A/propidium iodide staining based flow cytometry analysis (reference value: 24.4 %); assay type: functional
MDA-MB-231 [36] = experiment: Induction of cell cycle arrest in human MDA-MB-231 cells assessed as accumulation at G1 phase at 5 uM measured after 24 hrs under dark condition by RNase A/propidium iodide staining based flow cytometry analysis (reference value: 47.5 %); assay type: functional
MDA-MB-231 [37] = experiment: Induction of ROS generation in human MDA-MB-231 cells at 2.5 uM preincubated for 4 hrs followed by 625 +/- 2 nanometer LED light irradiation for 1 hr and measured after 18 hrs by DCFH-DA staining based fluorescence microscopy; assay type: functional, cell-based; conditions: time 23.0 hrs
MDA-MB-231 [38] = experiment: Induction of cell cycle arrest in human MDA-MB-231 cells assessed as accumulation at G2 phase at 5 uM preincubated with 625 +/- 2 nanometer LED light irradiation for 1 hrs and measured after 24 hrs by RNase A/propidium iodide staining based flow cytometry analysis (reference value: 22.1 %); assay type: functional; conditions: time 25 hrs
[39] = Drug uptake in human MDA-MB-231 cells at 10 uM by flow cytometric analysis; assay type: ADME, cell-based; conditions: mda-mb-231, 10 µM, TDE = time-dependent effect

Structure (SMILES): Oc1cccc(-c2c3nc(c(-c4cccc(O)c4)c4ccc([nH]4)c(-c4cccc(O)c4)c4nc(c(-c5cccc(O)c5)c5ccc2[nH]5)CC4)C=C3)c1 [TEMOPORFIN]
- selectivity ratio [1]: 1.72
- IC50 [2]: 38 µM
- selectivity ratio [3]: > 66.7
- IC50 (HUVEC): 1.5 µM
- IC50 [4]: > 100 µM
- IC50 (4T1): 50 nM
- Ratio IC50 [5]: 760.2
- IC50 (MDA-MB-231 [6]): 870 nM
- IC50 [7]: 33.4 µM
- Ratio IC50 [8]: 38.41

Structure (SMILES): Oc1cccc(-c2c3nc(c(-c4c(F)c(F)c(F)c(F)c4F)c4ccc([nH]4)c4ccc([nH]4)c(-c4c(F)c(F)c(F)c(F)c4F)c4ccc2[nH]4)C=C3)c1
- selectivity ratio [1]: 0.54
- IC50 [2]: > 100 µM
- Activity [9]: 428 nm
- Activity [10]: 0.46
- selectivity ratio [3]: > 112
- IC50 (HUVEC): 0.89 µM
- Activity [11]: 4.61 log
- IC50 [4]: > 100 µM
- Activity [12]: 443 nm
- Activity [13]: 5.12 log
- IC50 (4T1): 570 nM
- Ratio IC50 [5]: >175.44
- Activity [14]: 633 nm
- IC50 (MDA-MB-231 [6]): 1640 nM
- IC50 [7]: > 100 µM
- Ratio IC50 [8]: >60.98
- Activity [15]: 5.1 log

Structure (SMILES): Oc1ccccc1-c1c2nc(c(-c3c(F)c(F)c(F)c(F)c3F)c3ccc([nH]3)c3ccc([nH]3)c(-c3c(F)c(F)c(F)c(F)c3F)c3ccc1[nH]3)C=C2
- selectivity ratio [1]: 0.82
- IC50 [2]: > 100 µM
- Activity [9]: 425 nm
- Activity [10]: 0.45
- selectivity ratio [3]: > 21.1
- IC50 (HUVEC): 4.75 µM
- Activity [11]: 4.57 log
- IC50 [4]: > 100 µM
- Activity [12]: 441 nm
- Activity [13]: 5.11 log
- IC50 (4T1): 460 nM
- Ratio IC50 [5]: >217.39
- Activity [14]: 629 nm
- IC50 (MDA-MB-231 [6]): 5810 nM
- IC50 [7]: 50.8 µM
- Ratio IC50 [8]: 8.75
- Activity [15]: 5.08 log

Structure (SMILES): Oc1ccc(-c2c3nc(c(-c4c(F)c(F)c(F)c(F)c4F)c4ccc([nH]4)c4ccc([nH]4)c(-c4c(F)c(F)c(F)c(F)c4F)c4ccc2[nH]4)C=C3)cc1
- selectivity ratio [1]: 22.2
- IC50 [2]: > 100 µM
- Activity (MDA-MB-231 [16]): 25.1%
- Activity (MDA-MB-231 [17]): 1.01%
- Activity (MDA-MB-231 [18]): inactive
- Drug uptake [19]: Active
- Activity [9]: 427 nm
- Activity [10]: 0.55
- selectivity ratio [3]: > 10.9
- IC50 (HUVEC): 9.32 µM
- Activity [11]: 4.62 log
- Activity (MDA-MB-231 [20]): 30.1%
- viability at 2.5 µM (MDA-MB-231 [21]): 64.5%
- Activity (MDA-MB-231 [22]): 38.6%
- IC50 [4]: > 100 µM
- Activity (MDA-MB-231 [23]): 18.1%
- Drug uptake [24]: Active
- Activity [12]: 443 nm
- Drug uptake [25]: Active
- Activity [13]: 5.12 log
- IC50 (4T1): 300 nM
- viability at 2.5 µM (MDA-MB-231 [26]): 98.3%
- Activity (MDA-MB-231 [27]): 0.013%
- Ratio IC50 [5]: >333.33
- Activity [14]: 633 nm
- Activity (MDA-MB-231 [28]): 5.29%
- Activity (MDA-MB-231 [29]): 0.72%
- IC50 (MDA-MB-231 [6]): 420 nM
- IC50 [7]: > 100 µM
- Activity (MDA-MB-231 [30]): 23.2%
- Activity (MDA-MB-231 [31]): Active
- Ratio IC50 [8]: >238.1
- Activity (MDA-MB-231 [32]): inactive
- Activity (MDA-MB-231 [33]): 0.095%
- Activity (MDA-MB-231 [34]): 2.84%
- Activity [15]: 5.09 log
- Activity (MDA-MB-231 [35]): 26.1%
- Activity (MDA-MB-231 [36]): 46.7%
- Activity (MDA-MB-231 [37]): Active
- Activity (MDA-MB-231 [38]): 17.5%
- Drug uptake [39]: Tde
